Where only a bound is given, the exact number is not on record here.

One assay deals with human PDE1B enzyme (Homo sapiens (Human), UniProt Q01064). Kind of assay: IMAP TR-FRET PDE1B enzymatic assay. Format: biochemical.
Conditions: not given
The essentials:
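Full-length GST-tagged human PDE1B (250 pg/well) in IMAP BSA buffer with 10 U/ml calmodulin and 2.5 mM CaCl2; compound pre-incubated 5 min at room temperature, then 200 nM (final) FAM-cAMP for 30 min. IMAP binding reagent/Tb added, 1 h; TR-FRET 520/490 ratio read. IC50 from sigmoidal dose-response fit.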
For the compound `Cc1oc2ncnc(NC3(C)CC3)c2c1C(=O)N1CCC(C#N)(c2ccccc2)CC1` [Example 274, 1-{6-Methyl-4-[(1-methylcyclopropyl)amino]furo[2,3-d]pyrimidine-5-carbonyl}-4-phenylpiperidine-4-carbonitrile], the IC50 is 10 to 100 nM.

Staying with this assay, now noted: negative log of half-maximal molar inhibitory concentration; 200 nM FAM-cAMP; values given as bins.
With `Cc1oc2ncnc(NC3(C)CC3)c2c1C(=O)NCc1ccc(OC(F)F)cc1` [Example 267, N-{[4-(Difluoromethoxy)phenyl]methyl}-6-methyl-4-[(1-methylcyclopropyl)amino]furo[2,3-d]pyrimidine-5-carboxamide], the “PDE1b (pIC50)” value is reported as over 8.

Take `Cc1oc2ncnc(NC3(C)CC3)c2c1C(=O)N1CCCC(c2ccc(F)cc2)CC1` (centres unmarked) [Example 296, 5-[4-(4-Fluorophenyl)azepane-1-carbonyl]-6-methyl-N-(1-methylcyclopropyl)furo[2,3-d]pyrimidin-4-amine]: the “PDE1b (pIC50)” value is reported as over 8.

Turning to `COc1ccc(C2(NC(=O)c3c(C)oc4ncnc(NC5(C)CC5)c34)CC2)cc1F` [Example 298, N-[1-(3-Fluoro-4-methoxyphenyl)cyclopropyl]-6-methyl-4-[(1-methylcyclopropyl)amino]furo[2,3-d]pyrimidine-5-carboxamide], the “PDE1b (pIC50)” value is listed as over 8.

Still in this assay, the particulars now being: negative log of half-maximal molar inhibitory concentration; 200 nM FAM-cAMP; values given as bins; read-out: PDE1b (pIC50) (converted).
`COCCN1CCN(C(=O)c2c(C)oc3ncnc(NC4(C)CC4)c23)CC1` [Example 260, 5-[4-(2-Methoxyethyl)piperazine-1-carbonyl]-6-methyl-N-(1-methylcyclopropyl)furo[2,3-d]pyrimidin-4-amine]: the IC50 is 100 to 1000 nM.

Regarding `Cc1oc2ncnc(NC3(C)CC3)c2c1C(=O)Nc1ccc2c(cnn2C)c1` [Example 262, 6-Methyl-N-(1-methyl-1H-indazol-5-yl)-4-[(1-methylcyclopropyl)amino]furo[2,3-d]pyrimidine-5-carboxamide], the IC50 was 10 to 100 nM.

Consider `Cc1oc2ncnc(NC3(C)CC3)c2c1C(=O)Nc1ccc2scnc2c1` [Example 263, N-(1,3-Benzothiazol-5-yl)-6-methyl-4-[(1-methylcyclopropyl)amino]furo[2,3-d]pyrimidine-5-carboxamide], for which the IC50 is 10 to 100 nM.

For `Cc1oc2ncnc(NC3(C)CC3)c2c1C(=O)N(C)Cc1cc(C2CC2)[nH]n1` [Example 265, N-[(5-Cyclopropyl-1H-pyrazol-3-yl)methyl]-N,6-dimethyl-4-[(1-methylcyclopropyl)amino]furo[2,3-d]pyrimidine-5-carboxamide], the IC50 was 10 to 100 nM.

In the case of `Cc1oc2ncnc(NC3(C)CC3)c2c1C(=O)N1CCn2ccnc2C1` [Example 269, 5-{5H,6H,7H,8H-Imidazo[1,2-a]pyrazine-7-carbonyl}-6-methyl-N-(1-methylcyclopropyl)furo[2,3-d]pyrimidin-4-amine], the IC50 was 10 to 100 nM.

`Cc1oc2ncnc(NC3(C)CC3)c2c1C(=O)NC12CC3CC(CC(C3)C1)C2` [Example 270, N-(Adamantan-1-yl)-6-methyl-4-[(1-methylcyclopropyl)amino]furo[2,3-d]pyrimidine-5-carboxamide]: the IC50 is under 10 nM.

Turning to `Cc1oc2ncnc(NC3(C)CC3)c2c1C(=O)N1CCc2sccc2C1` [Example 273, 6-Methyl-N-(1-methylcyclopropyl)-5-{4H,5H,6H,7H-thieno[3,2-c]pyridine-5-carbonyl}furo[2,3-d]pyrimidin-4-amine], the IC50 is 10 to 100 nM.

With `CCOCC1(CNC(=O)c2c(C)oc3ncnc(NC4(C)CC4)c23)CC1` [Example 275, N-{[1-(Ethoxymethyl)cyclopropyl]methyl}-6-methyl-4-[(1-methylcyclopropyl)amino]furo[2,3-d]pyrimidine-5-carboxamide], the IC50 is 10 to 100 nM.

Turning to `Cc1oc2ncnc(NC3(C)CC3)c2c1C(=O)N1CC2C(C1)C2(C)C` (centres unmarked) [Example 278, 5-{6,6-Dimethyl-3-azabicyclo[3.1.0]hexane-3-carbonyl}-6-methyl-(1-methylcyclopropyl)furo[2,3-d]pyrimidin-4-amine], the IC50 was 10 to 100 nM.

For `Cc1oc2ncnc(NC3(C)CC3)c2c1C(=O)N1C[C@@H]2[C@H](C1)[C@H]2c1ccc(F)cc1` [Example 279, 5-[(1R,5S,6S)-6-(4-Fluorophenyl)-3-azabicyclo[3.1.0]hexane-3-carbonyl]-6-methyl-N-(1-methylcyclopropyl)furo[2,3-d]pyrimidin-4-amine], the IC50 was 10 to 100 nM.

`Cc1oc2ncnc(NC3(C)CC3)c2c1C(=O)NCc1cccc(F)n1` [Example 280, N-[(6-Fluoropyridin-2-yl)methyl]-6-methyl-4-[(1-methylcyclopropyl)amino]furo[2,3-d]pyrimidine-5-carboxamide]: the IC50 was 10 to 100 nM.

Regarding `Cc1oc2ncnc(NC3(C)CC3)c2c1C(=O)NC1(c2ccc(F)cn2)CC1` [Example 281, N-[1-(5-Fluoropyridin-2-yl)cyclopropyl]-6-methyl-4-[(1-methylcyclopropyl)amino]furo[2,3-d]pyrimidine-5-carboxamide], the IC50 is 10 to 100 nM.

Take `Cc1oc2ncnc(NC3(C)CC3)c2c1C(=O)N1CCN(c2ccc(F)nc2)CC1` [Example 282, 5-[4-(6-Fluoropyridin-3-yl)piperazine-1-carbonyl]-6-methyl-N-(1-methylcyclopropyl)furo[2,3-d]pyrimidin-4-amine]: the IC50 was 10 to 100 nM.

In the case of `Cc1cc2c(cn1)CCN(C(=O)c1c(C)oc3ncnc(NC4(C)CC4)c13)C2` [Example 283, 6-Methyl-5-(7-methyl-1,2,3,4-tetrahydro-2,6-naphthyridine-2-carbonyl)-N-(1-methylcyclopropyl)furo[2,3-d]pyrimidin-4-amine], the IC50 is 10 to 100 nM.

Consider `Cc1ccc2c(n1)CCN(C(=O)c1c(C)oc3ncnc(NC4(C)CC4)c13)C2` [Example 284, 6-Methyl-5-(2-methyl-5,6,7,8-tetrahydro-1,6-naphthyridine-6-carbonyl)-N-(1-methylcyclopropyl)furo[2,3-d]pyrimidin-4-amine], for which the IC50 is 10 to 100 nM.

As for `Cc1oc2ncnc(NC3(C)CC3)c2c1C(=O)N1CCc2c(ccnc2Cl)C1` [Example 285, 5-(5-Chloro-1,2,3,4-tetrahydro-2,6-naphthyridine-2-carbonyl)-6-methyl-N-(1-methylcyclopropyl)furo[2,3-d]pyrimidin-4-amine], the IC50 was 10 to 100 nM.

As for `Cc1oc2ncnc(NC3(C)CC3)c2c1C(=O)N1CCc2ccc(Cl)nc2C1` [Example 286, 5-(2-Chloro-5,6,7,8-tetrahydro-1,7-naphthyridine-7-carbonyl)-6-methyl-N-(1-methylcyclopropyl)furo[2,3-d]pyrimidin-4-amine], the IC50 is 10 to 100 nM.

For the compound `Cc1oc2ncnc(NC3(C)CC3)c2c1C(=O)N1CCc2nc(Cl)ccc2C1` [Example 287, 5-(2-Chloro-5,6,7,8-tetrahydro-1,6-naphthyridine-6-carbonyl)-6-methyl-N-(1-methylcyclopropyl)furo[2,3-d]pyrimidin-4-amine], the IC50 was 10 to 100 nM.

With `Cc1oc2ncnc(NC3(C)CC3)c2c1C(=O)N1CCc2nnc(Cl)cc2C1` [Example 288, 5-{3-Chloro-5H,6H,7H,8H-pyrido[4,3-c]pyridazine-6-carbonyl}-6-methyl-N-(1-methylcyclopropyl)furo[2,3-d]pyrimidin-4-amine], the IC50 was 100 to 1000 nM.

Take `Cc1oc2ncnc(NC3(C)CC3)c2c1C(=O)N1CCc2nc(Cl)ncc2C1` [Example 289, 5-{2-Chloro-5H,6H,7H,8H-pyrido[4,3-d]pyrimidine-6-carbonyl}-6-methyl-N-(1-methylcyclopropyl)furo[2,3-d]pyrimidin-4-amine]: the IC50 is 10 to 100 nM.

`Cc1oc2ncnc(NC3(C)CC3)c2c1C(=O)N1CCc2nc(C3CCOCC3)ccc2C1` [Example 290, 6-Methyl-N-(1-methylcyclopropyl)-5-[2-(oxan-4-yl)-5,6,7,8-tetrahydro-1,6-naphthyridine-6-carbonyl]furo[2,3-d]pyrimidin-4-amine]: the IC50 is 10 to 100 nM.

On to `Cc1oc2ncnc(NC3(C)CC3)c2c1C(=O)NCc1cccnc1F` [Example 291, N-[(2-Fluoropyridin-3-yl)methyl]-6-methyl-4-[(1-methylcyclopropyl)amino]furo[2,3-d]pyrimidine-5-carboxamide], for which the IC50 is 10 to 100 nM.

`Cc1oc2ncnc(NC3(C)CC3)c2c1C(=O)NCc1ncc(F)cn1` [Example 292, N-[(5-Fluoropyrimidin-2-yl)methyl]-6-methyl-4-[(1-methylcyclopropyl)amino]furo[2,3-d]pyrimidine-5-carboxamide]: the IC50 was 10 to 100 nM.

As to `Cc1oc2ncnc(NC3(C)CC3)c2c1C(=O)NCc1ccc(F)nc1` [Example 293, N-[(6-Fluoropyridin-3-yl)methyl]-6-methyl-4-[(1-methylcyclopropyl)amino]furo[2,3-d]pyrimidine-5-carboxamide], the IC50 was 10 to 100 nM.

Regarding `Cc1oc2ncnc(NC3(C)CC3)c2c1C(=O)N1CCc2cnc(C(C)C)nc2C1` [Example 294, 6-Methyl-N-(1-methylcyclopropyl)-5-[2-(propan-2-yl)-5H,6H,7H,8H-pyrido[3,4-d]pyrimidine-7-carbonyl]furo[2,3-d]pyrimidin-4-amine], the IC50 is 10 to 100 nM.

Regarding `Cc1oc2ncnc(NC3(C)CC3)c2c1C(=O)N1CCCCC(c2ccc(F)cc2)C1` (centres unmarked) [Example 295, 5-[3-(4-Fluorophenyl)azepane-1-carbonyl]-6-methyl-N-(1-methylcyclopropyl)furo[2,3-d]pyrimidin-4-amine], the IC50 was 10 to 100 nM.

`Cc1oc2ncnc(NC3(C)CC3)c2c1C(=O)NC1(CCO)CC1` [Example 297, N-[1-(2-Hydroxyethyl)cyclopropyl]-6-methyl-4-[(1-methylcyclopropyl)amino]furo[2,3-d]pyrimidine-5-carboxamide]: the IC50 was 10 to 100 nM.

As to `Cc1oc2ncnc(NC3(C)CC3)c2c1C(=O)N1CCc2cnc(C3CC3)nc2C1` [Example 299, 5-{2-Cyclopropyl-5H,6H,7H,8H-pyrido[3,4-d]pyrimidine-7-carbonyl}-6-methyl-N-(1-methylcyclopropyl)furo[2,3-d]pyrimidin-4-amine], the IC50 is 10 to 100 nM.

For the origin of these results see patent publication US20250145633A1, “SUBSTITUTED FURANOPYRIMIDINE COMPOUNDS AS PDE1 INHIBITORS” (Dart NeuroScience, LLC, priority 2017, published 2025).
